Data: PubChem BioAssay AID246 (DTP/NCI, 2004)
Several values for one entry are separate records, joined by “and”; a condition that tells them apart may be missing. Equal entries are not always repeated. Inconclusive results and toxic doses are left out. Numbered stars: 1 amine (or outer) side, 2 acyl side, 3 side chain; on linkers, the order of the positions; unused ones are H or OH. Bridge positions count the residues as written; N and C are the ends. Square brackets hold non-standard residues; d marks the D form. Peptide text beside a SMILES is read from it. I, II: the chains in the order shown. Actinocin(9to1) = Cc1c2oc3c(C)ccc(C(=O)[*:1])c3nc-2c(C(=O)[*:2])c(N)c1=O; aThr = C[C@H](O)[C@H](N)C(=O)O; NMeV = CN[C@H](C(=O)O)C(C)C; Sar = CNCC(=O)O

Tested on: BDF1 mice, P1081 chloroleukemia ip, survival T/C
Experiment: NCI In Vivo Anticancer Drug Screen. Data for tumor model P1081 Chloroleukemia (intraperitoneal) in B6D2F1 (BDF1) mice
Conditions: endpoint: mean survival time, higher = longer survival
Protocol: The antitumor activity of compounds was measured in mice bearing transplantable tumors. Survival or tumor size were measured and the results are expressed as the measurement made in the treated group (T) divided by the measurement made in the vehicle treated control group (C). The tumor model used in this assay is P1081 Chloroleukemia (intraperitoneal) in B6D2F1 (BDF1) mice

[1] = dose: 1.25 mg/kg/injection, schedule: Q01DX010 (ip), vehicle: saline
[2] = dose: 5.0 mg/kg/injection, schedule: Q01DX010 (ip), vehicle: saline
[3] = dose: 10.0 mg/kg/injection, schedule: Q01DX010 (ip), vehicle: saline
[4] = dose: 62.5 mg/kg/injection, schedule: Q01DX010 (ip), vehicle: saline
[5] = dose: 62.5 mg/kg/injection, schedule: Q01DX Z (ip), vehicle: carboxymethylcellulose (CMC)
[6] = dose: 125.0 mg/kg/injection, schedule: Q01DX010 (ip), vehicle: saline

Q: Which T/C (dose: 18.75 mg/kg/injection, schedule: Q01DX Z (ip), vehicle: carboxymethylcellulose (CMC)) does the source give for O=C1CCC(N2C(=O)c3ccccc3C2=O)C(=O)N1 (configuration not stated) here?
A: 89 % of control

Q: What about the T/C (dose: 37.5 mg/kg/injection, schedule: Q01DX Z (ip), vehicle: carboxymethylcellulose (CMC)) of the same compound?
A: 98 % of control

Q: What about the T/C (dose: 75.0 mg/kg/injection, schedule: Q01DX Z (ip), vehicle: carboxymethylcellulose (CMC)) of the same compound?
A: 94 % of control

Q: And the T/C (dose: 150.0 mg/kg/injection, schedule: Q01DX Z (ip), vehicle: carboxymethylcellulose (CMC))?
A: 94 % of control

Q: Which results are given for Oc1cc(CN(CCCl)CCCl)c(O)cc1CN(CCCl)CCCl?
A: T/C (dose: 0.06 mg/kg/injection, schedule: Q01DX Z (sc), vehicle: steriod suspending solution): 101 % of control; T/C (dose: 0.12 mg/kg/injection, schedule: Q01DX Z (sc), vehicle: steriod suspending solution): 109 % of control; T/C (dose: 0.24 mg/kg/injection, schedule: Q01DX Z (sc), vehicle: steriod suspending solution): 114 % of control; T/C (dose: 0.49 mg/kg/injection, schedule: Q01DX Z (sc), vehicle: steriod suspending solution): 172 % of control; T/C (dose: 0.63 mg/kg/injection, schedule: Q01DX010 (ip), vehicle: saline): 110 % of control and 100 % of control; T/C (dose: 0.99 mg/kg/injection, schedule: Q01DX Z (sc), vehicle: steriod suspending solution): 175 % of control; T/C [1]: 120 % of control and 104 % of control; T/C (dose: 2.5 mg/kg/injection, schedule: Q01DX010 (ip), vehicle: saline): 122 % of control; T/C (dose: 3.75 mg/kg/injection, schedule: Q01DX Z (sc), vehicle: steriod suspending solution): 104 % of control; T/C [2]: 115 % of control and 118 % of control; T/C (dose: 7.5 mg/kg/injection, schedule: Q01DX Z (sc), vehicle: steriod suspending solution): 110 % of control and 101 % of control

Q: What does the source list for O=C(C[N+]12CN3CN(CN(C3)C1)C2)c1ccc(Cl)cc1?
A: T/C (dose: 37.5 mg/kg/injection, schedule: Q01DX010 (ip), vehicle: saline): 113 % of control and 98 % of control; T/C (dose: 75.0 mg/kg/injection, schedule: Q01DX010 (ip), vehicle: saline): 107 % of control and 112 % of control; T/C (dose: 150.0 mg/kg/injection, schedule: Q01DX010 (ip), vehicle: saline): 112 % of control and 118 % of control; T/C (dose: 300.0 mg/kg/injection, schedule: Q01DX010 (ip), vehicle: saline): 110 % of control and 114 % of control

Q: What does the source list for N#[N+]c1cnc([O-])[nH]c1=O?
A: T/C [1]: 115 % of control; T/C [2]: 160 % of control; T/C [3]: 160 % of control and 166 % of control

Q: Which results are given for CCCCNc1ncnc2c1cnn2C?
A: T/C (dose: 16.0 mg/kg/injection, schedule: Q01DX Z (ip), vehicle: carboxymethylcellulose (CMC)): 101 % of control; T/C (dose: 31.0 mg/kg/injection, schedule: Q01DX Z (ip), vehicle: carboxymethylcellulose (CMC)): 117 % of control; T/C (dose: 31.25 mg/kg/injection, schedule: Q01DX010 (ip), vehicle: saline): 95 % of control and 100 % of control; T/C [4]: 95 % of control and 100 % of control; T/C [5]: 113 % of control; T/C [6]: 90 % of control and 105 % of control

Q: What does the source list for CC1CCOS(=O)O1 (configuration not stated)?
A: T/C (dose: 2.5 mg/kg/injection, schedule: Q01DX Z (ip), vehicle: carboxymethylcellulose (CMC)): 101 % of control; T/C (dose: 5.0 mg/kg/injection, schedule: Q01DX Z (ip), vehicle: carboxymethylcellulose (CMC)): 115 % of control; T/C [3]: 115 % of control; T/C (dose: 10.0 mg/kg/injection, schedule: Q01DX Z (ip), vehicle: carboxymethylcellulose (CMC)): 86 % of control; T/C (dose: 20.0 mg/kg/injection, schedule: Q01DX010 (ip), vehicle: saline): 110 % of control; T/C (dose: 40.0 mg/kg/injection, schedule: Q01DX010 (ip), vehicle: saline): 95 % of control

Q: Which T/C (dose: 0.94 mg/kg/injection, schedule: Q01DX Z (ip), vehicle: saline) does the source give for N=[N+]=CC(=O)OCC(N)C(=O)O (configuration not stated) here?
A: 113 % of control

Q: What about the T/C (dose: 1.25 mg/kg/injection, schedule: Q01DX Z (ip), vehicle: saline) of the same compound?
A: 118 % of control and 122 % of control

Q: And the T/C (dose: 2.5 mg/kg/injection, schedule: Q01DX Z (ip), vehicle: saline)?
A: 107 % of control and 117 % of control

Q: What about the T/C (dose: 3.75 mg/kg/injection, schedule: Q01DX Z (ip), vehicle: saline) of the same compound?
A: 160 % of control

Q: What about the T/C (dose: 12.5 mg/kg/injection, schedule: Q01DX010 (ip), vehicle: saline) of the same compound?
A: 175 % of control

Q: And the T/C (dose: 25.0 mg/kg/injection, schedule: Q01DX010 (ip), vehicle: saline)?
A: 90 % of control and 95 % of control

Q: For O=CCC(O)C(O)C(O)CO (configuration not stated), which T/C (dose: 31.25 mg/kg/injection, schedule: Q01DX Z (ip), vehicle: carboxymethylcellulose (CMC)) is on record?
A: 95 % of control

Q: And the T/C [5]?
A: 88 % of control

Q: And the T/C (dose: 125.0 mg/kg/injection, schedule: Q01DX Z (ip), vehicle: carboxymethylcellulose (CMC))?
A: 88 % of control

Q: And the T/C (dose: 250.0 mg/kg/injection, schedule: Q01DX Z (ip), vehicle: carboxymethylcellulose (CMC))?
A: 97 % of control

Q: Which results are given for Cc1c2oc3c(C)ccc(C(=O)N[C@@H]4C(=O)N[C@H](C(C)C)C(=O)N5CCC[C@H]5C(=O)N(C)CC(=O)N(C)[C@@H](C(C)C)C(=O)O[C@H]4C)c3nc-2c(C(=O)N[C@@H]2C(=O)N[C@H](C(C)C)C(=O)N3CCC[C@H]3C(=O)N(C)CC(=O)N(C)[C@@H](C(C)C)C(=O)O[C@H]2C)c(N)c1=O (I: [aThr][dV]P[Sar][NMeV] / II: [aThr][dV]P[Sar][NMeV]; ester I:1-I:C, II:1-II:C; linker I:N-II:N via Actinocin(9to1))?
A: T/C (dose: 0.7 micrograms/kg/injection, schedule: Q01DX Z (ip), vehicle: saline): 103 % of control; T/C (dose: 1.5 micrograms/kg/injection, schedule: Q01DX Z (ip), vehicle: saline): 94 % of control; T/C (dose: 6.2 micrograms/kg/injection, schedule: Q01DX Z (ip), vehicle: saline): 110 % of control; T/C (dose: 12.5 micrograms/kg/injection, schedule: Q01DX010 (ip), vehicle: other): 155 % of control; T/C (dose: 25.0 micrograms/kg/injection, schedule: Q01DX010 (ip), vehicle: other): 190 % of control and 205 % of control; T/C (dose: 25.0 micrograms/kg/injection, schedule: Q01DX Z (ip), vehicle: saline): 119 % of control; T/C (dose: 50.0 micrograms/kg/injection, schedule: Q01DX010 (ip), vehicle: other): 180 % of control and 245 % of control; T/C (dose: 50.0 micrograms/kg/injection, schedule: Q01DX Z (ip), vehicle: saline): 104 % of control; T/C (dose: 100.0 micrograms/kg/injection, schedule: Q01DX010 (ip), vehicle: other): 105 % of control; T/C (dose: 100.0 micrograms/kg/injection, schedule: Q01DX Z (ip), vehicle: saline): 102 % of control

Q: For CC(=O)O[C@]1(C(C)=O)CC[C@H]2[C@@H]3C[C@H](C)C4=CC(=O)C=C[C@]4(C)[C@@]3(F)[C@@H](O)C[C@@]21C, which T/C (dose: 2.5 mg/kg/injection, schedule: Q01DX Z (sc), vehicle: steriod suspending solution) is on record?
A: 100 % of control

Q: And the T/C (dose: 5.0 mg/kg/injection, schedule: Q01DX Z (sc), vehicle: steriod suspending solution)?
A: 108 % of control

Q: And the T/C (dose: 10.0 mg/kg/injection, schedule: Q01DX Z (sc), vehicle: steriod suspending solution)?
A: 107 % of control

Q: And the T/C (dose: 12.5 mg/kg/injection, schedule: Q01DX010 (sc), vehicle: steriod suspending solution)?
A: 105 % of control and 100 % of control

Q: And the T/C (dose: 20.0 mg/kg/injection, schedule: Q01DX Z (sc), vehicle: steriod suspending solution)?
A: 108 % of control

Q: And the T/C (dose: 25.0 mg/kg/injection, schedule: Q01DX010 (sc), vehicle: steriod suspending solution)?
A: 100 % of control

Q: And the T/C (dose: 40.0 mg/kg/injection, schedule: Q01DX Z (sc), vehicle: steriod suspending solution)?
A: 116 % of control

Q: And the T/C (dose: 50.0 mg/kg/injection, schedule: Q01DX010 (sc), vehicle: steriod suspending solution)?
A: 90 % of control and 95 % of control

Q: And the T/C (dose: 100.0 mg/kg/injection, schedule: Q01DX010 (sc), vehicle: steriod suspending solution)?
A: 90 % of control and 100 % of control

Q: What about the T/C (dose: 160.0 mg/kg/injection, schedule: Q01DX Z (sc), vehicle: steriod suspending solution) of the same compound?
A: 105 % of control

Q: And the T/C (dose: 320.0 mg/kg/injection, schedule: Q01DX Z (sc), vehicle: steriod suspending solution)?
A: 93 % of control

Q: Which results are given for CN(C)c1ccc(/C=C\c2ccnc3ccccc23)cc1?
A: T/C (dose: 0.4 mg/kg/injection, schedule: Q01DX Z (ip), vehicle: water): 87 % of control; T/C (dose: 0.8 mg/kg/injection, schedule: Q01DX Z (ip), vehicle: water): 99 % of control; T/C (dose: 1.6 mg/kg/injection, schedule: Q01DX Z (ip), vehicle: water): 108 % of control and 122 % of control; T/C (dose: 3.1 mg/kg/injection, schedule: Q01DX Z (ip), vehicle: water): 99 % of control and 105 % of control; T/C (dose: 6.25 mg/kg/injection, schedule: Q01DX Z (ip), vehicle: water): 90 % of control and 94 % of control; T/C (dose: 6.3 mg/kg/injection, schedule: Q01DX Z (ip), vehicle: water): 118 % of control and 120 % of control; T/C (dose: 12.5 mg/kg/injection, schedule: Q01DX Z (ip), vehicle: water): 112 % of control and 94 % of control and 105 % of control; T/C (dose: 25.0 mg/kg/injection, schedule: Q01DX Z (ip), vehicle: water): 118 % of control and 88 % of control and 90 % of control

Q: What does the source list for COc1ccc2c(c1OC)C(=O)O[C@@H]2[C@H]1c2c(cc3c(c2OC)OCO3)CCN1C?
A: T/C (dose: 31.3 mg/kg/injection, schedule: Q01DX010 (ip), vehicle: saline): 88 % of control and 90 % of control; T/C [4]: 88 % of control and 95 % of control; T/C [6]: 88 % of control and 90 % of control; T/C (dose: 250.0 mg/kg/injection, schedule: Q01DX010 (ip), vehicle: saline): 88 % of control and 90 % of control
